In US6699682B2, “Assay for inhibitors of fatty-acid amide hydrolase” (The Scripps Research Institute, priority 1995, dated 2004):

Key:
[1] = molecular target: T1, human recombinant expressed FAAH (Homo sapiens, UniProt O00519); experiment: oleamide hydrolysis by COS-7 cells transfected with human oleamide hydrolase (TLC); type: biochemical; conditions: versus control COS-7 cells
T1 construct: expressed in transfected cells; host or cells: COS-7 cells, transient, pcDNA3; dounce-homogenised cell extract
T1 sequence (O00519 1-579): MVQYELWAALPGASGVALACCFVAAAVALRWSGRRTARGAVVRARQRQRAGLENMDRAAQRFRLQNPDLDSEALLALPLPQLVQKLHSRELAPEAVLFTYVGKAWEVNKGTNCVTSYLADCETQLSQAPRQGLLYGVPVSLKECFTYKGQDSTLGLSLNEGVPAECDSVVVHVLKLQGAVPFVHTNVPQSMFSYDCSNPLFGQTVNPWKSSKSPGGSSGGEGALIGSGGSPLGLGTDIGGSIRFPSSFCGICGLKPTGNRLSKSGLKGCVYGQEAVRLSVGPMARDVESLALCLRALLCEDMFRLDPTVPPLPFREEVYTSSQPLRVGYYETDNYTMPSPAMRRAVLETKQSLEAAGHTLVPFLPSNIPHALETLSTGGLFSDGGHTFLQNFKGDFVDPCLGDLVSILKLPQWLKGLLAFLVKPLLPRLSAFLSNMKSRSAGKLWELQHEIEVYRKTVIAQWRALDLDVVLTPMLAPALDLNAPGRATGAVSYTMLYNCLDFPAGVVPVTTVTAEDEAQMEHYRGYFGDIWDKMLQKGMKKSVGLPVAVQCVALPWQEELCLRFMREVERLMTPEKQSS
Description: For preparing the rat, mouse and human FAAH recombinant protein, the corresponding FAAH cDNAs were excised from the Bluescript II vectors and separately ligated into the eukaryotic expression vector, pcDNA3 (Invitrogen, San Diego, Calif.). 100 mm dishes of COS-7 cells were grown at 37° C. to 70% confluency in complete medium (DMEM with L-glutamine, non-essential amino acids, sodium pyruvate and fetal bovine serum). The COS-7 cells were then washed with serum-free medium and treated with 5 ml of transfection solution (5-6 μg of FAAH-pcDNA3 vector were preincubated with transfectamine (Gibco-BRL) for 30 minutes in 1 ml of serum free medium, then diluted to a final volume of 5 ml with serum free medium). The COS-7 cells were incubated at 37° C. for 5 hours, at which point 10 ml of complete medium was added to the cells and incubation was continued at 37° C. for 12 hours. The transfection solution was then aspirated away from the COS-7 cells, and the cells were incubated in a fresh batch of complete medium for another 24 hours. […]
(§1) While untransfected COS-7 cells contained negligible amounts of oleamide hydrolase activity, COS-7 cells transfected with the rat FAAH cDNA expressed high levels of oleamide hydrolase activity (FIG. 15A). The assay was performed as described in Section B where by TLC the conversion of oleamide to oleic acid was assessed.

recombinant rat FAAH = molecular target: T2, recombinant rat FAAH (Rattus norvegicus, UniProt P97612); experiment: oleamide hydrolase activity of rat FAAH-transfected COS-7 cell extract and its inhibition (TLC); type: biochemical; conditions: versus untransfected and control transfected cells
T2 construct: expressed in transfected cells; host or cells: COS-7 cells, transient, pcDNA3; dounce-homogenised cell extract
T2 sequence (P97612 1-579): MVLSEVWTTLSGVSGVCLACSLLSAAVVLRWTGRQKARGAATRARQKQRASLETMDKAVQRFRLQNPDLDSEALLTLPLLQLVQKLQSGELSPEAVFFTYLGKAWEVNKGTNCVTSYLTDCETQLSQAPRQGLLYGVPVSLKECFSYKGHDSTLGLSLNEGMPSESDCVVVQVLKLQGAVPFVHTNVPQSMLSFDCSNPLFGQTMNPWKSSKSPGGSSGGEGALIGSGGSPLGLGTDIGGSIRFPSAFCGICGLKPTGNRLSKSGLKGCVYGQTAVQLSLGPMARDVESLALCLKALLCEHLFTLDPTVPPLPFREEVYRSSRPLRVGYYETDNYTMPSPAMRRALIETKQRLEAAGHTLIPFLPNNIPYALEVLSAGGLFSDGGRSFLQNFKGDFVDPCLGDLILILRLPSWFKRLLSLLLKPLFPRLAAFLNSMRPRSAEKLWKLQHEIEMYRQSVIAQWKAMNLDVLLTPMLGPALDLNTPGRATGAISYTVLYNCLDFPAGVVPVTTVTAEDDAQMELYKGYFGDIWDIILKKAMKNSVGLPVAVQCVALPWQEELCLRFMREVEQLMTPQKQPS
Description: The following thin layer chromatography (TLC) protocol is used for assaying cis-9,10 octadecenoamide hydrolysis activity, also referred to as fatty-acid amide hydrolase activity. Oleamide is first labeled with ^14C. To accomplish this, ^14C-Oleic acid (1-10 μM, Moravek Biochemicals, 5-50 μCi/μM) in CH2CL2 (200 μL, 0.005-0.05 M) at 0° C. was treated with excess oxalyl chloride and the reaction mixture was warmed to 25° C. for 6 hours. The reaction mixture was then concentrated under a constant stream of gaseous nitrogen and the remaining residue was cooled to 0° C. and treated with excess saturated aqueous ammonium hydroxide. After 5 minutes, the reaction mixture was partitioned between Et)Ac (1.5 mL) and 10% HCl (1.0 mL). The organic layer was then washed with water (1.0 mL) and concentrated under a constant stream of gaseous nitrogen to provide ^14C-oleamide in quantitative yield as judged by TLC (60% EtOAc in hexanes; oleamide Rf−0.2; oleic acid Rf−0.8). […]
as §1, with “assessed. […]” for “assessed.”

CCCCCCCC/C=C\CCCCCCCC(N)=O [cis-9,10-octadecenoamide, Cis-9,10-octadecenoamide]
conversion of oleamide to oleic acid by human FAAH-transfected COS-7 cells (qualitative, TLC) [1]: conversion to oleic acid is seen only in lane 2 | conversion of labeled substrate by rat FAAH-transfected COS-7 cells (qualitative, TLC) (recombinant rat FAAH): effective at converting labeled oleamide to oleic acid
